This is an account of results in US11912701B2, “Protein kinase inhibitors for promoting liver regeneration or reducing or preventing hepatocyte death” (HEPAREGENIX GMBH, priority 2018, dated 2024).

Holding throughout (format): biochemical
The target of one assay is T1, MKK4 (Homo sapiens, UniProt P45985).
T1 construct: purchased ProQinase GmbH, Freiburg, Germany (33PanQinase Assay Service)
T1 sequence (P45985 1-399): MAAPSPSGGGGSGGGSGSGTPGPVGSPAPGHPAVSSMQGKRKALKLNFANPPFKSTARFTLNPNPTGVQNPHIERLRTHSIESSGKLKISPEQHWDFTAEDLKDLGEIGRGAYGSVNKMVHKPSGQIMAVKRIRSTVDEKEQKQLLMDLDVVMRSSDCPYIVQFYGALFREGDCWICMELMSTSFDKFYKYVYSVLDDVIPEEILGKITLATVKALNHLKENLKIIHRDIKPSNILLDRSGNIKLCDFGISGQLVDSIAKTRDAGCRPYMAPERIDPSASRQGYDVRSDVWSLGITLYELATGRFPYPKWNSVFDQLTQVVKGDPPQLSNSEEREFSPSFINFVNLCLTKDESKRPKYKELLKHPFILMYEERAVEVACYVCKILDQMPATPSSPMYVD
The assay is described as follows: 33PanQinase enzyme assay, MKK4. As to conditions: assay 'IC50'; read-out: Potency MKK4 (IC50). In outline: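 Radiometric 33PanQinase assay: kinase, substrate, ATP and compound in standard buffer, 60 min at 30 °C; 33Pi incorporation read by scintillation counting.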

A further assay addresses T2, BRaf (Homo sapiens, UniProt P15056).
T2 construct: purchased ProQinase GmbH, Freiburg, Germany (33PanQinase Assay Service)
The assay is described as follows: 33PanQinase enzyme assay, BRaf. To be noted: ratio IC50(BRaf)/IC50(MKK4). In outline: (§1)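 Radiometric kinase reactions with ATP, test compound in DMSO and enzyme/substrate mix were incubated 60 min at 30 °C, stopped with 2% H3PO4 and washed; incorporated 33Pi was counted by scintillation. Single-concentration data are given as % residual activity; IC50 values come from least-squares curve fits.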

Another assay addresses JNK1 (Homo sapiens, UniProt P45983). The assay is described as follows: 33PanQinase enzyme assay, JNK1. Details: purchased ProQinase GmbH, Freiburg, Germany (33PanQinase Assay Service). To be noted: ratio IC50(JNK1)/IC50(MKK4). The essentials: as §1
Another assay has as its target T3, MKK7 (Homo sapiens, UniProt O14733).
T3 sequence (O14733 1-419): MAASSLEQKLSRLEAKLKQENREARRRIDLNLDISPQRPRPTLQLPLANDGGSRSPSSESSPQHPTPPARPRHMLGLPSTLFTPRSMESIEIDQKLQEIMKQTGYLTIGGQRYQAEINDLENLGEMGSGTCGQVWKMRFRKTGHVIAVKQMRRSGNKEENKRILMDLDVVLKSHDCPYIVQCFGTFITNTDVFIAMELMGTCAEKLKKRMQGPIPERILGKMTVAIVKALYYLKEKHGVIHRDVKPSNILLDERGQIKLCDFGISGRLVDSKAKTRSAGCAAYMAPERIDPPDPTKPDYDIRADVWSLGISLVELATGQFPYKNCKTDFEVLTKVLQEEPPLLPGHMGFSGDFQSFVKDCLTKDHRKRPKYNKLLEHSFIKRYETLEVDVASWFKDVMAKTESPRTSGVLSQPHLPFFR
The assay is described as follows: 33PanQinase enzyme assay, MKK7. Details: purchased ProQinase GmbH, Freiburg, Germany (33PanQinase Assay Service). As to conditions: ratio IC50(MKK7)/IC50(MKK4). The essentials:
as §1

In general, IC50 refers to the concentration at which inhibition is half-maximal.

A value given as a limit tells only on which side of the number the result lay.

T2 sequence (P15056 whole entry, species assumed): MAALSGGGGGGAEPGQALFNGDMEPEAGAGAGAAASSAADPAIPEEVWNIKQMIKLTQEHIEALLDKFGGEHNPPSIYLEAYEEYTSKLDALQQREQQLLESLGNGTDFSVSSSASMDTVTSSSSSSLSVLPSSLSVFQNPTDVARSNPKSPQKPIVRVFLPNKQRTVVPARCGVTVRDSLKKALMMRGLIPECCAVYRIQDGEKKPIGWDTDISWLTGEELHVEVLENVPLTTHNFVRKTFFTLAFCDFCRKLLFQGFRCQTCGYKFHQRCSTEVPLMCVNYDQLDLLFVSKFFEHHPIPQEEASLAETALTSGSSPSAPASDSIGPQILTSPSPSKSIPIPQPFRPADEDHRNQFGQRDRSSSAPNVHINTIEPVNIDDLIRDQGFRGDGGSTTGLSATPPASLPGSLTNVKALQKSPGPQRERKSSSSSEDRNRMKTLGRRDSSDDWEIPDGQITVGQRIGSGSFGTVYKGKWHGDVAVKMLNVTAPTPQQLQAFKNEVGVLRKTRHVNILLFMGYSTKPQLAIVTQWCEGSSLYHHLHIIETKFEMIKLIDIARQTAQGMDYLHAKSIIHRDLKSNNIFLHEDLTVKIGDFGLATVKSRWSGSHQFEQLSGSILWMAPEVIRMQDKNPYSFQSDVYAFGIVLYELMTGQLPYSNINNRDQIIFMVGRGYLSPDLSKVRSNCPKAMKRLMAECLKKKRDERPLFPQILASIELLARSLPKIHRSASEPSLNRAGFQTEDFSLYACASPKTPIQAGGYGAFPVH
Sequence of JNK1 (P45983 whole entry): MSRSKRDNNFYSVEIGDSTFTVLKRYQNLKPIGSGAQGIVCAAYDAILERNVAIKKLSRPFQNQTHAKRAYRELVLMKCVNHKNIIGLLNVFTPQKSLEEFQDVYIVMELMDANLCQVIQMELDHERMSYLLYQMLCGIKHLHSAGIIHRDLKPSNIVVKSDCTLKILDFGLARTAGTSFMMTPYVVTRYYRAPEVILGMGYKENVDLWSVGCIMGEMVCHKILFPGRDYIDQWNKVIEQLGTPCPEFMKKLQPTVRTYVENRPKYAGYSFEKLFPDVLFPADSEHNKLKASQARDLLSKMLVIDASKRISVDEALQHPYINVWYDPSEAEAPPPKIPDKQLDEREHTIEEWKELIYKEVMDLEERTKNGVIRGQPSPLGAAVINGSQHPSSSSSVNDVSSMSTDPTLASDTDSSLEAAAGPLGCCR

Turning to `O=C(c1ccc(F)c(NS(=O)(=O)CCC(F)(F)F)c1F)c1c[nH]c2ncc(-c3cnc(C(F)(F)F)nc3)cc12` [Example 142, N-(2,6-difluoro-3-(5-(2-(trifluoromethyl)pyrimidin-5-yl)-1H-pyrrolo[2,3-b]pyridine-3-carbonyl)phenyl)-3,3,3-trifluoro-propane-1-sulfonamide], on MKK4, the 50% inhibitory concentration (IC50) is less than 0.1 µM. Besides, the “Selectivity Braf, IC50(off-target)/IC50(MKK4)” value (shortened to “Selectivity Braf”) at BRaf is reported as “+++ (IC50(off-target)/IC50(MKK4) > 100)”. Further, the “Selectivity JNK1, IC50(off-target)/IC50(MKK4)” value (“Selectivity JNK1” below) at JNK1 is “++·+”. In addition, on MKK7, the “Selectivity IVIKK7, IC50(off-target)/IC50(MKK4)” value (from here on “Selectivity IVIKK7”) is listed as “+++ (IC50(off-target)/IC50(MKK4) > 100)”.

As for `CCCS(=O)(=O)Nc1ccc(F)c(C(=O)c2c[nH]c3ncc(-c4cccc(C)c4)cc23)c1F` [Example 114, N-(2,4-difluoro-3-(5-(m-tolyl)-1H-pyrrolo[2,3-b]pyridine-3-carbonyl)phenyl)propane-1-sulfonamide], the IC50 on MKK4 lay within 0.1 to 1 µM. Moreover, the “Selectivity Braf” value on BRaf is listed as “◯ (3 ≥ IC50(off-target)/IC50(MKK4))”. The “Selectivity JNK1” value on JNK1 is “+ (10 ≥ IC50(off-target)/IC50(MKK4) > 3)”. For the same compound, the “Selectivity IVIKK7” value on MKK7 is given as “+++ (IC50(off-target)/IC50(MKK4) > 100)”.

Regarding `CCCS(=O)(=O)Nc1c(F)ccc(C(=O)c2c[nH]c3ncc(-c4ccc(C(=O)O)cc4)cc23)c1F` [Example 222, 4-(3-(2,4-difluoro-3-(propylsulfonamido)benzoyl)-1H-pyrrolo[2,3-b]pyridin-5-yl)benzoic acid], at MKK4, the IC50 was less than 0.1 µM. Moreover, the “Selectivity Braf” value at BRaf is listed as “+++ (IC50(off-target)/IC50(MKK4) > 100)”. Moreover, at JNK1, the “Selectivity JNK1” value is on record as “++ (100 ≥ IC50(off-target)/IC50(MKK4) > 10)”. Further, the “Selectivity IVIKK7” value at MKK7 is “+++ (IC50(off-target)/IC50(MKK4) > 100)”.

Consider `CCCS(=O)(=O)Nc1c(F)ccc(C(=O)c2c[nH]c3ncc(-c4cnc(C(C)C)nc4)cc23)c1F` [Example 193, N-(2,6-difluoro-3-(5-(2-isopropylpyrimidin-5-yl)-1H-pyrrolo[2,3-b]pyridine-3-carbonyl)phenyl)propane-1-sulfonamide], for which, at MKK4, the half-maximal inhibitory concentration (IC50) is less than 0.1 µM. For the same compound, the “Selectivity Braf” value on BRaf is given as “++ (100 ≥ IC50(off-target)/IC50(MKK4) > 10)”. Besides, on JNK1, the “Selectivity JNK1” value is “+++ (IC50(off-target)/IC50(MKK4) > 100)”. Besides, the “Selectivity IVIKK7” value at MKK7 is “+++ (IC50(off-target)/IC50(MKK4) > 100)”.

Consider `CCCCS(=O)(=O)Nc1c(F)ccc(C(=O)c2c[nH]c3ncc(-c4ccc(F)cc4C)cc23)c1F` [Example 227, N-(2,6-difluoro-3-(5-(4-fluoro-2-methylphenyl)-1H-pyrrolo[2,3-b]pyridine-3-carbonyl)phenyl)butane-1-sulfonamide], for which the IC50 on MKK4 was less than 0.1 µM. Also, the “Selectivity Braf” value on BRaf is “+++ (IC50(off-target)/IC50(MKK4) > 100)”. Also, at JNK1, the “Selectivity JNK1” value is “+++ (IC50(off-target)/IC50(MKK4) > 100)”. The “Selectivity IVIKK7” value at MKK7 is “+++ (IC50(off-target)/IC50(MKK4) > 100)”.

In the case of `CCCS(=O)(=O)Nc1c(F)ccc(C(=O)c2c[nH]c3ncc(-c4ccncc4Cl)cc23)c1F` [Example 173, N-(3-(5-(3-chloropyridin-4-yl)-1H-pyrrolo[2,3-b]pyridine-3-carbonyl)-2,6-difluorophenyl)propane-1-sulfonamide], on MKK4, the IC50 was less than 0.1 µM. Besides, at BRaf, the “Selectivity Braf” value is listed as “+++ (IC50(off-target)/IC50(MKK4) > 100)”. For the same compound, the “Selectivity JNK1” value at JNK1 is “++ (100 ≥ IC50(off-target)/IC50(MKK4) > 10)”. In addition, the “Selectivity IVIKK7” value at MKK7 was “+++ (IC50(off-target)/IC50(MKK4) > 100)”.

Regarding `CCCS(=O)(=O)Nc1c(F)ccc(C(=O)c2c[nH]c3ncc(-c4cnc(OCCCN(C)C)nc4)cc23)c1F` [Example 200, N-(3-(5-(2-(3-(dimethylamino)propoxy)pyrimidin-5-yl)-1H-pyrrolo[2,3-b]pyridine-3-carbonyl)-2,6-difluorophenyl)propane-1-sulfonamide], the half-maximal inhibitory concentration (IC50) on MKK4 is 1 to 10 µM. Further, at BRaf, the “Selectivity Braf” value is on record as “+ (10 ≥ IC50(off-target)/IC50(MKK4) > 3)”. Moreover, the “Selectivity JNK1” value on JNK1 is listed as “+ (10 ≥ IC50(off-target)/IC50(MKK4) > 3)”. For the same compound, the “Selectivity IVIKK7” value at MKK7 is reported as “+++ (IC50(off-target)/IC50(MKK4) > 100)”.

On to `CCCS(=O)(=O)Nc1ccc(F)c(C(=O)c2c[nH]c3ncc(-c4cccc(C(F)(F)F)c4)cc23)c1F` [Example 117, N-(2,4-difluoro-3-(5-(3-(trifluoromethyl)phenyl)-1H-pyrrolo[2,3-b]pyridine-3-carbonyl)phenyl)propane-1-sulfonamide], for which the 50% inhibitory concentration (IC50) at MKK4 fell in the range of 1 to 10 µM. Besides, at BRaf, the “Selectivity Braf” value was “◯ (3 ≥ IC50(off-target)/IC50(MKK4))”. For the same compound, the “Selectivity JNK1” value on JNK1 is given as “◯ (3 ≥ IC50(off-target)/IC50(MKK4))”. Moreover, at MKK7, the “Selectivity IVIKK7” value was “+++ (IC50(off-target)/IC50(MKK4) > 100)”.

Take `CCCS(=O)(=O)Nc1c(F)ccc(C(=O)c2c[nH]c3ncc(-c4ccc(Cl)cc4C)cc23)c1F` [Example 225, N-(3-(5-(4-chloro-2-methylphenyl)-1H-pyrrolo[2,3-b]pyridine-3-carbonyl)-2,6-difluorophenyl)propane-1-sulfonamide]: the half-maximal inhibitory concentration (IC50) at MKK4 was less than 0.1 µM. Further, on BRaf, the “Selectivity Braf” value is “+++ (IC50(off-target)/IC50(MKK4) > 100)”. Further, the “Selectivity JNK1” value at JNK1 is “++ (100 ≥ IC50(off-target)/IC50(MKK4) > 10)”. The “Selectivity IVIKK7” value at MKK7 was “+++ (IC50(off-target)/IC50(MKK4) > 100)”.

For the compound `CCCS(=O)(=O)Nc1c(F)ccc(C(=O)c2c[nH]c3ncc(-c4cnc(CC)nc4)cc23)c1F` [Example 206, N-(3-(5-(2-ethylpyrimidin-5-yl)-1H-pyrrolo[2,3-b]pyridine-3-carbonyl)-2,6-difluorophenyl)propane-1-sulfonamide], the IC50 on MKK4 was less than 0.1 µM. At BRaf, the “Selectivity Braf” value is “+++ (IC50(off-target)/IC50(MKK4) > 100)”. Moreover, the “Selectivity JNK1” value on JNK1 is “+++ (IC50(off-target)/IC50(MKK4) > 100)”. At MKK7, the “Selectivity IVIKK7” value is “+++ (IC50(off-target)/IC50(MKK4) > 100)”.

For `CCCS(=O)(=O)Nc1c(F)ccc(C(=O)c2c[nH]c3ncc(-c4ccc(OCC(O)CO)cc4)cc23)c1F` (stereo not shown) [Example 154, N-(3-(5-(4-(2,3-dihydroxypropoxy)phenyl)-1H-pyrrolo[2,3-b]pyridine-3-carbonyl)-2,6-difluorophenyl)propane-1-sulfonamide], the IC50 on MKK4 was less than 0.1 µM. Moreover, at BRaf, the “Selectivity Braf” value was “++ (100 ≥ IC50(off-target)/IC50(MKK4) > 10)”. Besides, the “Selectivity JNK1” value on JNK1 is “++ (100 ≥ IC50(off-target)/IC50(MKK4) > 10)”. In addition, the “Selectivity IVIKK7” value at MKK7 is “+++ (IC50(off-target)/IC50(MKK4) > 100)”.

With `C#Cc1ncc(-c2cnc3[nH]cc(C(=O)c4ccc(F)c(NS(=O)(=O)CCC)c4F)c3c2)cn1` [Example 208, N-(3-(5-(2-ethynylpyrimidin-5-yl)-1H-pyrrolo[2,3-b]pyridine-3-carbonyl)-2,6-difluorophenyl)propane-1-sulfonamide], the IC50 at MKK4 is less than 0.1 µM. Besides, the “Selectivity Braf” value on BRaf was “++ (100 ≥ IC50(off-target)/IC50(MKK4) > 10)”. The “Selectivity JNK1” value at JNK1 is listed as “+++ (IC50(off-target)/IC50(MKK4) > 100)”. In addition, the “Selectivity IVIKK7” value at MKK7 is given as “++ (100 ≥ IC50(off-target)/IC50(MKK4) > 10)”.

Consider `CCCS(=O)(=O)Nc1c(F)ccc(C(=O)c2c[nH]c3ncc(-c4ccncc4C)cc23)c1F` [Example 235, N-(2,6-difluoro-3-(5-(3-methylpyridin-4-yl)-1H-pyrrolo[2,3-b]pyridine-3-carbonyl)phenyl)propane-1-sulfonamide], for which the IC50 on MKK4 was less than 0.1 µM. Besides, the “Selectivity Braf” value on BRaf was “+++ (IC50(off-target)/IC50(MKK4) > 100)”. For the same compound, at JNK1, the “Selectivity JNK1” value is reported as “+++ (IC50(off-target)/IC50(MKK4) > 100)”. Also, the “Selectivity IVIKK7” value on MKK7 was “+++ (IC50(off-target)/IC50(MKK4) > 100)”.
